Values joined by “and” are separate entries in the source; they are usually repeats but may differ in a detail not shown here. Equal entries are not always repeated. Inconclusive results and toxic doses are left out.
System: BDF1 mice, P388 leukemia ip, median survival T/C
Assay: NCI In Vivo Anticancer Drug Screen. Data for tumor model P388 Leukemia (intraperitoneal) in B6D2F1 (BDF1) mice
Conditions: endpoint: median survival time, higher = longer survival
In short: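 Antitumour effect was judged in vivo: survival in drug-treated mice, normalised to that of vehicle-dosed controls, gives the reported T/C.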

[1] = dose: 25.0 mg/kg/injection, schedule: Q01DX009 (ip), vehicle: saline with Tween-80
[2] = dose: 100.0 mg/kg/injection, schedule: Q01DX009 (ip), vehicle: saline with Tween-80
[3] = dose: 25.0 mg/kg/injection, schedule: Q01DX009 (ip), vehicle: Klucel (hydroxypropylcellulose) (HPC)
[4] = dose: 50.0 mg/kg/injection, schedule: Q04DX003 (ip), vehicle: Klucel (hydroxypropylcellulose) (HPC)
[5] = dose: 75.0 mg/kg/injection, schedule: Q04DX003 (ip), vehicle: Klucel (hydroxypropylcellulose) (HPC)
[6] = dose: 25.0 mg/kg/injection, schedule: Q04DX003 (ip), vehicle: saline with Tween-80
[7] = dose: 12.5 mg/kg/injection, schedule: Q01DX009 (ip), vehicle: saline
[8] = dose: 25.0 mg/kg/injection, schedule: Q01DX009 (ip), vehicle: saline
[9] = dose: 50.0 mg/kg/injection, schedule: Q01DX009 (ip), vehicle: saline
[10] = dose: 100.0 mg/kg/injection, schedule: Q04DX003 (ip), vehicle: saline with Tween-80
[11] = dose: 200.0 mg/kg/injection, schedule: Q01DX009 (ip), vehicle: saline with Tween-80
[12] = dose: 200.0 mg/kg/injection, schedule: Q04DX003 (ip), vehicle: saline with Tween-80
[13] = dose: 400.0 mg/kg/injection, schedule: Q01DX009 (ip), vehicle: saline with Tween-80
[14] = dose: 400.0 mg/kg/injection, schedule: Q04DX003 (ip), vehicle: saline with Tween-80
[15] = dose: 50.0 mg/kg/injection, schedule: Q01DX009 (ip), vehicle: saline with Tween-80

COc1ccc(OC)c(NC=O)c1
T/C [1]: 97 % of control | T/C [2]: 97 % of control

CCOC(=O)C(Cc1ccc(N(CCCl)CCCl)cc1)NP1(=O)NCCCO1 (configuration not stated)
T/C (dose: 6.25 mg/kg/injection, schedule: Q01DX009 (ip), vehicle: Klucel (hydroxypropylcellulose) (HPC)): 153 % of control | T/C (dose: 9.0 mg/kg/injection, schedule: Q04DX003 (ip), vehicle: Klucel (hydroxypropylcellulose) (HPC)): 169 % of control | T/C (dose: 9.5 mg/kg/injection, schedule: Q04DX003 (ip), vehicle: Klucel (hydroxypropylcellulose) (HPC)): 154 % of control | T/C (dose: 12.0 mg/kg/injection, schedule: Q04DX003 (ip), vehicle: Klucel (hydroxypropylcellulose) (HPC)): 209 % of control | T/C (dose: 12.5 mg/kg/injection, schedule: Q01DX009 (ip), vehicle: Klucel (hydroxypropylcellulose) (HPC)): 230 % of control | T/C (dose: 14.5 mg/kg/injection, schedule: Q04DX003 (ip), vehicle: Klucel (hydroxypropylcellulose) (HPC)): 166 % of control | T/C (dose: 22.0 mg/kg/injection, schedule: Q04DX003 (ip), vehicle: Klucel (hydroxypropylcellulose) (HPC)): 166 % of control | T/C [3]: 230 % of control | T/C (dose: 25.0 mg/kg/injection, schedule: Q04DX003 (ip), vehicle: Klucel (hydroxypropylcellulose) (HPC)): 272 % of control | T/C (dose: 33.0 mg/kg/injection, schedule: Q04DX003 (ip), vehicle: Klucel (hydroxypropylcellulose) (HPC)): 250 % of control and 212 % of control | T/C [4]: 250 % of control and 181 % of control | T/C [5]: 91 % of control

c1ccc(CC(Cc2ccccc2)NC2=NCCO2)cc1
T/C (dose: 6.25 mg/kg/injection, schedule: Q04DX003 (ip), vehicle: saline with Tween-80): 100 % of control | T/C (dose: 12.5 mg/kg/injection, schedule: Q04DX003 (ip), vehicle: saline with Tween-80): 100 % of control | T/C [6]: 100 % of control

O=C(O)c1ccccc1C(=O)Nc1cc(Cl)ccc1Cl
T/C [4]: 91 % of control | T/C (dose: 100.0 mg/kg/injection, schedule: Q04DX003 (ip), vehicle: Klucel (hydroxypropylcellulose) (HPC)): 100 % of control

COc1ccc2nc(Cl)c(C)c(C)c2c1
T/C [7]: 96 % of control | T/C [8]: 88 % of control | T/C (dose: 25.0 mg/kg/injection, schedule: Q04DX003 (ip), vehicle: saline): 100 % of control | T/C [9]: 93 % of control | T/C (dose: 50.0 mg/kg/injection, schedule: Q04DX003 (ip), vehicle: saline): 100 % of control | T/C (dose: 100.0 mg/kg/injection, schedule: Q04DX003 (ip), vehicle: saline): 109 % of control | T/C (dose: 200.0 mg/kg/injection, schedule: Q04DX003 (ip), vehicle: saline): 90 % of control | T/C (dose: 400.0 mg/kg/injection, schedule: Q01DX009 (ip), vehicle: saline): 92 % of control | T/C (dose: 400.0 mg/kg/injection, schedule: Q04DX003 (ip), vehicle: saline): 100 % of control

C(=Nc1ccccc1)c1ccc(-c2ccccc2)cc1
T/C [2]: 115 % of control | T/C [10]: 104 % of control | T/C [11]: 100 % of control | T/C [12]: 104 % of control | T/C [13]: 115 % of control | T/C [14]: 109 % of control

c1ccc(-c2c(-c3ccccc3)c(-c3ccccc3)c(-c3ccccc3)c(-c3ccccc3)c2-c2ccccc2)cc1
T/C (dose: 6.25 mg/kg/injection, schedule: Q01DX009 (ip), vehicle: water): 93 % of control | T/C (dose: 12.5 mg/kg/injection, schedule: Q01DX009 (ip), vehicle: water): 115 % of control | T/C (dose: 12.5 mg/kg/injection, schedule: Q04DX003 (ip), vehicle: water): 106 % of control | T/C (dose: 25.0 mg/kg/injection, schedule: Q04DX003 (ip), vehicle: water): 106 % of control and 108 % of control | T/C (dose: 50.0 mg/kg/injection, schedule: Q01DX009 (ip), vehicle: water): 90 % of control | T/C (dose: 50.0 mg/kg/injection, schedule: Q04DX003 (ip), vehicle: water): 100 % of control and 109 % of control | T/C (dose: 100.0 mg/kg/injection, schedule: Q01DX009 (ip), vehicle: water): 89 % of control | T/C (dose: 100.0 mg/kg/injection, schedule: Q04DX003 (ip), vehicle: water): 88 % of control and 97 % of control

CC(=O)OC1CCC2(C)C3CCC4(C)C(=CCC5(C(=O)O)CCC(C)(C)CC45)C3(C)CCC2C1(C)C (configuration not stated)
T/C (dose: 0.12 mg/kg/injection, schedule: Q01DX009 (ip), vehicle: alcohol): 111 % of control | T/C (dose: 0.25 mg/kg/injection, schedule: Q01DX009 (ip), vehicle: alcohol): 106 % of control | T/C (dose: 0.5 mg/kg/injection, schedule: Q01DX009 (ip), vehicle: alcohol): 116 % of control

O=C(COc1ccc([N+](=O)[O-])cc1)Nc1cccnc1
T/C [10]: 100 % of control | T/C [14]: 100 % of control

CC=C=CCN(C)Cc1ccccc1
T/C [7]: 120 % of control | T/C [8]: 100 % of control | T/C [9]: 105 % of control and 109 % of control

C=C1C(=O)C2(C)OC2(C)C1C(=O)O (configuration not stated)
T/C (dose: 1.25 mg/kg/injection, schedule: Q01DX009 (ip), vehicle: Klucel (hydroxypropylcellulose) (HPC)): 98 % of control | T/C (dose: 2.5 mg/kg/injection, schedule: Q01DX009 (ip), vehicle: Klucel (hydroxypropylcellulose) (HPC)): 114 % of control | T/C (dose: 5.0 mg/kg/injection, schedule: Q01DX009 (ip), vehicle: Klucel (hydroxypropylcellulose) (HPC)): 120 % of control | T/C (dose: 10.0 mg/kg/injection, schedule: Q01DX009 (ip), vehicle: Klucel (hydroxypropylcellulose) (HPC)): 109 % of control

O=C(O)c1cc(S(=O)(=O)F)cc(S(=O)(=O)F)c1
T/C (dose: 25.0 mg/kg/injection, schedule: Q01DX009 (ip), vehicle: alcohol): 113 % of control | T/C (dose: 33.0 mg/kg/injection, schedule: Q01DX009 (ip), vehicle: alcohol): 116 % of control | T/C (dose: 50.0 mg/kg/injection, schedule: Q01DX009 (ip), vehicle: alcohol): 112 % of control

CCCCCCOB(OCCCCCC)OCCCCCC
T/C (dose: 22.5 mg/kg/injection, schedule: Q01DX009 (ip), vehicle: saline with Tween-80): 94 % of control | T/C (dose: 45.0 mg/kg/injection, schedule: Q01DX009 (ip), vehicle: saline with Tween-80): 97 % of control | T/C (dose: 90.0 mg/kg/injection, schedule: Q01DX009 (ip), vehicle: saline with Tween-80): 102 % of control

CC(=O)C(C(=O)Nc1ccccc1)c1cc(NS(=O)(=O)c2ccccc2)ccc1O (configuration not stated)
T/C (dose: 100.0 mg/kg/injection, schedule: Q01DX001 (ip), vehicle: saline with Tween-80): 90 % of control | T/C (dose: 200.0 mg/kg/injection, schedule: Q01DX001 (ip), vehicle: saline with Tween-80): 95 % of control | T/C (dose: 400.0 mg/kg/injection, schedule: Q01DX001 (ip), vehicle: saline with Tween-80): 86 % of control

Cc1cc2ccccc2oc1=O
T/C [6]: 100 % of control | T/C (dose: 50.0 mg/kg/injection, schedule: Q04DX003 (ip), vehicle: saline with Tween-80): 100 % of control | T/C [10]: 100 % of control

COc1cccc(N)c1N
T/C (dose: 50.0 mg/kg/injection, schedule: Q01DX009 (ip), vehicle: suspension in saline): 124 % of control | T/C (dose: 200.0 mg/kg/injection, schedule: Q01DX009 (ip), vehicle: suspension in saline): 98 % of control

COC(=O)C1CC2C(CCC3C(C)(C(=O)OC)CCCC23C)C(=O)C1(O)C(C)C (configuration not stated)
T/C [2]: 100 % of control | T/C [11]: 100 % of control | T/C [13]: 90 % of control

CCC(C)C1(C)OC1C(=O)OC (configuration not stated)
T/C [11]: 107 % of control | T/C [13]: 107 % of control

CC(C)CCNc1ncnc2[nH]ncc12
T/C (dose: 5.5 mg/kg/injection, schedule: Q01DX009 (ip), vehicle: Klucel (hydroxypropylcellulose) (HPC)): 95 % of control | T/C (dose: 8.2 mg/kg/injection, schedule: Q01DX009 (ip), vehicle: Klucel (hydroxypropylcellulose) (HPC)): 100 % of control | T/C (dose: 18.75 mg/kg/injection, schedule: Q04DX003 (ip), vehicle: Klucel (hydroxypropylcellulose) (HPC)): 86 % of control | T/C [3]: 90 % of control | T/C [1]: 90 % of control | T/C (dose: 37.5 mg/kg/injection, schedule: Q04DX003 (ip), vehicle: Klucel (hydroxypropylcellulose) (HPC)): 104 % of control | T/C [15]: 90 % of control | T/C [5]: 86 % of control

Oc1c(Cl)c(Cl)c(Cl)c(Cl)c1Cl (tested in a mixture with another compound)
T/C [1]: 109 % of control

O=C(c1ccccc1Cl)n1c2c(c3ccccc31)CCCC2
T/C [10]: 100 % of control | T/C [12]: 104 % of control | T/C [14]: 100 % of control

CC(=O)OCc1ccc(Cl)cc1
T/C [15]: 116 % of control | T/C [2]: 112 % of control

O=C(O)Cc1nc(Cl)ccc1Cl
T/C [15]: 106 % of control | T/C [2]: 100 % of control | T/C [11]: 92 % of control

CCC(NC(N)=O)C(CC)NC(N)=O (configuration not stated)
T/C [1]: 106 % of control | T/C [15]: 120 % of control and 123 % of control

Reference: PubChem BioAssay AID328 (DTP/NCI, 2004)
